Columns and labels:
[1] = molecular target: hCB2 receptor (Homo sapiens, UniProt P34972); assay: Agonism of CB2 by detection of cAMP using HTRF; format: cell-based; settings: CHO cells stably expressing CB2 receptor; for EC50: cAMP HTRF, forskolin-stimulated, average if tested more than once, read-out: hCB2 CHO EC50; for Emax: normalized to DMSO and maximal activation (5 nM CP55940)
Description: (§1) Method for Assaying Agonism of CB1 or CB2 by Detection of cAMP Using Homogeneous Time-Resolved Fluorescence (HTRF®)
(§2) CHOP-K1 cells stably expressing the CB1 receptor (PerkinElmer, ES-110-C) or the CB2 receptor (PerkinElmer, ES-111-CF) were seeded into 384 well white TC-treated plates (Greiner 781080) at 7000 cells per well in Ham's media (Gibco #31765-035) supplemented with 10% FBS (Gibco #16000-044) and 500 μg/mL Geneticin (Gibco #10131-027) and cultured overnight. The next day, plates were washed one time in assay buffer (HBSS with Ca^2+ and Mg^2+ (Corning #21-023-CV)+20 mM HEPES (Corning #25-060-Cl) and 0.01% BSA (Sigma A2153)). In a separate compound plate (Greiner 781201-906), 50 nL of test compound or DMSO was transferred using the Echo 550 (Labcyte), then 40 μL/well of assay buffer with 0.5 mM IBMX, 2 μM Forskolin (Sigma F3917), and 0.01% BSA was added. For the CB1 assay, assay buffer was dumped from the cell plate and fresh assay buffer containing 0.5 mM IBMX (Sigma I5679) was added at 30 μL/well, and the plate was incubated for 1 hr at 37° C., 5% CO2. Following the IBMX pre-treatment step, buffer was dumped from the cell plate, and 20 μL/well of the assay buffer with test compound was transferred into the cell plate with a subsequent incubation of 20 min at room temperature. Reagents for cAMP detection (cisbio 62AM4PEJ) were prepared and subsequently transferred to the cell plate at 20 μL/well. Following a 1 hr incubation at room temperature, the plate was read on the Pherastar FX (BMG, excitation 320 nm, detection at 620 nm (donor) and 665 nm (acceptor)). The ratio of signal at 665 nm/620 nm was determined for each well in the plate. For each assay day, a cAMP standard curve was run in parallel to assess the range of response and determine the concentration of cAMP in each well. Control wells (n=16 of each) with no activation of CB1 receptor (DMSO) and maximal activation (5 nM CP55940, Sigma) were used to normalize the data and to determine signal-to-background ratio and Z′. For the CB2 assay, conditions were as described above for the CB1 assay, except that the IBMX preincubation step was not used and that the 20 min compound incubation step occurred in the incubator at 37° C., 5% CO2.
(§3) EC50 values were calculated from dose response curves by nonlinear regression analysis using PRISM software.
(§4) Representative compounds of the present invention were tested according to the procedures described in Biological Example 1 above, with results as listed in Table 3, below. If a compound was tested more than once (due to multiple samples or batches), then the value listed in Table 3 below represents the average of the measured values.

[2] = molecular target: hCB1 receptor (Homo sapiens, UniProt P21554); assay: Agonism of CB1 by detection of cAMP using HTRF; format: cell-based; settings: CHO cells stably expressing CB1 receptor; for EC50: cAMP HTRF, forskolin-stimulated, average if tested more than once, read-out: hCB1 CHO EC50; for Emax: normalized to DMSO and maximal activation (5 nM CP55940)
Sequence of hCB1 receptor (P21554 whole entry): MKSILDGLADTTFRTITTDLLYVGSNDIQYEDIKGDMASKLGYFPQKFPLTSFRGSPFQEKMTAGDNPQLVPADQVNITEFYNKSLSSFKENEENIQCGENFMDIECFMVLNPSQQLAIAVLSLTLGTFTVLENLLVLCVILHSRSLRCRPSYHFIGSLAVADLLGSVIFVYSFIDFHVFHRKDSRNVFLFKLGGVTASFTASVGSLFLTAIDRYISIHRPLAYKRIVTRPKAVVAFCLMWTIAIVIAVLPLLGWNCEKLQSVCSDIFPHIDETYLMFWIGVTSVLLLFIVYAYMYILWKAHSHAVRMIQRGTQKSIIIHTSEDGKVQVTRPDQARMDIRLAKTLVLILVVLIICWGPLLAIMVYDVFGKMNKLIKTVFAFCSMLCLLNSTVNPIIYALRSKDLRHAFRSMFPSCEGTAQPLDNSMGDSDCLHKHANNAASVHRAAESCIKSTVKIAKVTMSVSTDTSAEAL
Description: as §1, §2, §3, §4

Sequence of hCB2 receptor (P34972 whole entry): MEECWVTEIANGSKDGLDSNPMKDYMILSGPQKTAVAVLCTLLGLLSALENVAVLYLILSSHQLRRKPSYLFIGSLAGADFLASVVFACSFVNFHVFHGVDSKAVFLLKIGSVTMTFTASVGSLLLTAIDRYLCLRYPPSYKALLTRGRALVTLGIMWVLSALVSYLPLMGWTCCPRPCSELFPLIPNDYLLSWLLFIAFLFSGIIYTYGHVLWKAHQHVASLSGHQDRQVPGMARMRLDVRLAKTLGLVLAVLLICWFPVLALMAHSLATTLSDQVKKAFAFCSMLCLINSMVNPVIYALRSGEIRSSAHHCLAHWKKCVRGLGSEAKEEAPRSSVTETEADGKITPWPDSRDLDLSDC

CC(C)(C)NC(=O)c1nn(-c2ccc(F)cc2F)c2c1CC1CCC2O1 (stereo not drawn) [Compound 1, N-(tert-butyl)-1-(2,4-difluorophenyl)-1,4,5,6,7,8-hexahydro-5,8-epoxycyclohepta[c]pyrazole-3-carboxamide]
EC50 [1]: 1.2 nM | Emax [1]: 95.6% | EC50 [2]: 108 nM | Emax [2]: 99%

CC(C)(C)NC(=O)c1c2c(nn1-c1ccc(F)cc1F)C1CCC(C2)O1 (stereo not drawn) [Compound 2, N-(tert-butyl)-2-(2,4-difluorophenyl)-2,4,5,6,7,8-hexahydro-5,8-epoxycyclohepta[c]pyrazole-3-carboxamide]
EC50 [1]: 2980 nM | Emax [1]: 72.8%

CC(C)(C)NC(=O)c1nn(-c2cnccn2)c2c1CC1CCC2O1 (stereo not drawn) [Compound 3, N-(tert-butyl)-1-(pyrazin-2-yl)-1,4,5,6,7,8-hexahydro-5,8-epoxycyclohepta[c]pyrazole-3-carboxamide]
EC50 [1]: 3.8 nM | Emax [1]: 99.7% | EC50 [2]: 2080 nM | Emax [2]: 94.8%

CC(C)(C)NC(=O)c1c2c(nn1-c1cnccn1)C1CCC(C2)O1 (stereo not drawn) [Compound 4, N-(tert-butyl)-2-(pyrazin-2-yl)-2,4,5,6,7,8-hexahydro-5,8-epoxycyclohepta[c]pyrazole-3-carboxamide]
EC50 [1]: 4070 nM | Emax [1]: 75.8%

CC(C)(C)[C@@H](CO)NC(=O)c1nn(-c2cnccn2)c2c1C[C@@H]1CC[C@H]2O1 [Compound 7, (5S,8R)-N-((S)-1-hydroxy-3,3-dimethylbutan-2-yl)-1-(pyrazin-2-yl)-1,4,5,6,7,8-hexahydro-5,8-epoxycyclohepta[c]pyrazole-3-carboxamide]
EC50 [1]: 0.56 nM | Emax [1]: 100%

CC(C)(C)[C@@H](CO)NC(=O)c1nn(-c2cnccn2)c2c1C[C@H]1CC[C@@H]2O1 [Compound 8, (5R,8S)-N-((S)-1-hydroxy-3,3-dimethylbutan-2-yl)-1-(pyrazin-2-yl)-1,4,5,6,7,8-hexahydro-5,8-epoxycyclohepta[c]pyrazole-3-carboxamide]
EC50 [1]: 0.09 nM | Emax [1]: 100% | EC50 [2]: 422 nM | Emax [2]: 111%

O=C(NC1(C(F)(F)F)CC1)c1nn(-c2cnccn2)c2c1CC1CCC2O1 (stereo not drawn) [Compound 9, 1-(pyrazin-2-yl)-N-(1-(trifluoromethyl)cyclopropyl)-1,4,5,6,7,8-hexahydro-5,8-epoxycyclohepta[c]pyrazole-3-carboxamide]
EC50 [1]: 0.24 nM | Emax [1]: 100%

O=C(NC1(C(F)(F)F)CCC1)c1nn(-c2cnccn2)c2c1CC1CCC2O1 (stereo not drawn) [Compound 10, 1-(pyrazin-2-yl)-N-(1-(trifluoromethyl)cyclobutyl)-1,4,5,6,7,8-hexahydro-5,8-epoxycyclohepta[c]pyrazole-3-carboxamide]
EC50 [1]: 0.04 nM | Emax [1]: 100% | EC50 [2]: 571 nM | Emax [2]: 90.3%

CC(C)(CO)NC(=O)c1nn(-c2cnccn2)c2c1CC1CCC2O1 (stereo not drawn) [Compound 11, N-(1-hydroxy-2-methylpropan-2-yl)-1-(pyrazin-2-yl)-1,4,5,6,7,8-hexahydro-5,8-epoxycyclohepta[c]pyrazole-3-carboxamide]
EC50 [1]: 7.1 nM | Emax [1]: 99.2%

CC(C)(C)[C@@H](CO)NC(=O)c1nn(-c2c[n+]([O-])ccn2)c2c1C[C@@H]1CC[C@H]2O1 [Compound 15, 3-((5S,8R)-3-(((S)-1-hydroxy-3,3-dimethylbutan-2-yl)carbamoyl)-5,6,7,8-tetrahydro-5,8-epoxycyclohepta[c]pyrazol-1(4H)-yl)pyrazine 1-oxide]
EC50 [1]: 0.34 nM | Emax [1]: 101%

O=C(NC1(C(F)(F)F)CC1)c1nn(-c2c[n+]([O-])ccn2)c2c1CC1CCC2O1 (stereo not drawn) [Compound 17, 3-(3-((1-(trifluoromethyl)cyclopropyl)carbamoyl)-5,6,7,8-tetrahydro-5,8-epoxycyclohepta[c]pyrazol-1(4H)-yl)pyrazine 1-oxide]
EC50 [1]: 0.12 nM | Emax [1]: 100%

CC(C)(CO)NC(=O)c1nn(-c2c[n+]([O-])ccn2)c2c1CC1CCC2O1 (stereo not drawn) [Compound 19, 3-(3-((1-hydroxy-2-methylpropan-2-yl)carbamoyl)-5,6,7,8-tetrahydro-5,8-epoxycyclohepta[c]pyrazol-1(4H)-yl)pyrazine 1-oxide]
EC50 [1]: 1 nM | Emax [1]: 100%

CC(C)(C)c1nc(-c2nn(-c3c[n+]([O-])ccn3)c3c2CC2CCC3O2)no1 (stereo not drawn) [Compound 23, 3-(3-(5-(tert-butyl)-1,2,4-oxadiazol-3-yl)-5,6,7,8-tetrahydro-5,8-epoxycyclohepta[c]pyrazol-1(4H)-yl)pyrazine 1-oxide]
EC50 [1]: 0.1 nM | Emax [1]: 100%

CC(C)(C)c1nnc(-c2nn(-c3c[n+]([O-])ccn3)c3c2CC2CCC3O2)[s+]1[O-] (stereo not drawn) [Compound 28, 3-(3-(5-(tert-butyl)-1-oxido-1,3,4-thiadiazol-2-yl)-5,6,7,8-tetrahydro-5,8-epoxycyclohepta[c]pyrazol-1(4H)-yl)pyrazine 1-oxide]
EC50 [1]: 0.74 nM | Emax [1]: 99%

CC(C)(C)NC(=O)c1c2c(nn1-c1c[n+]([O-])ccn1)C1CCC(C2)O1 (stereo not drawn) [Compound 30, 3-(3-(tert-butylcarbamoyl)-5,6,7,8-tetrahydro-5,8-epoxycyclohepta[c]pyrazol-2(4H)-yl)pyrazine 1-oxide]
EC50 [1]: 7970 nM | Emax [1]: 66.3%

CC(C)(C)c1nc(-c2nn(-c3cnccn3)c3c2CC2CCC3O2)no1 (stereo not drawn) [Compound 32, 3-(5-(tert-butyl)-1,2,4-oxadiazol-3-yl)-1-(pyrazin-2-yl)-1,4,5,6,7,8-hexahydro-5,8-epoxycyclohepta[c]pyrazole]
EC50 [1]: 0.33 nM | Emax [1]: 100%

CC(C)(C)c1cnc(-c2nn(-c3cnccn3)c3c2CC2CCC3O2)s1 (stereo not drawn) [Compound 34, 3-(5-(tert-butyl)thiazol-2-yl)-1-(pyrazin-2-yl)-1,4,5,6,7,8-hexahydro-5,8-epoxycyclohepta[c]pyrazole]
EC50 [1]: 0.24 nM | Emax [1]: 99.7%

CCC(C)(C)c1noc(-c2nn(-c3cnccn3)c3c2CC2CCC3O2)n1 (stereo not drawn) [Compound 36, 3-(3-(tert-pentyl)-1,2,4-oxadiazol-5-yl)-1-(pyrazin-2-yl)-1,4,5,6,7,8-hexahydro-5,8-epoxycyclohepta[c]pyrazole]
EC50 [1]: 0.04 nM | Emax [1]: 99.8%

CC(C)(C)c1nnc(-c2nn(-c3cnccn3)c3c2CC2CCC3O2)o1 (stereo not drawn) [Compound 39, 3-(5-(tert-butyl)-1,3,4-oxadiazol-2-yl)-1-(pyrazin-2-yl)-1,4,5,6,7,8-hexahydro-5,8-epoxycyclohepta[c]pyrazole]
EC50 [1]: 0.26 nM | Emax [1]: 100%

CC(C)(C)c1cnc(-c2nn(-c3cnccn3)c3c2CC2CCC3O2)o1 (stereo not drawn) [Compound 40, 3-(5-(tert-butyl)oxazol-2-yl)-1-(pyrazin-2-yl)-1,4,5,6,7,8-hexahydro-5,8-epoxycyclohepta[c]pyrazole]
EC50 [1]: 0.13 nM | Emax [1]: 99.7%

CC(C)(C)c1csc(-c2nn(-c3c[n+]([O-])ccn3)c3c2CC2CCC3O2)n1 (stereo not drawn) [Compound 44, 3-(3-(4-(tert-butyl)thiazol-2-yl)-5,6,7,8-tetrahydro-5,8-epoxycyclohepta[c]pyrazol-1(4H)-yl)pyrazine 1-oxide]
EC50 [1]: 46.3 nM | Emax [1]: 84.6%

CC(C)(C)NC(=O)c1nn(-c2cnccn2)c2c1C1CCC(C2)O1 (stereo not drawn) [Compound 45]
EC50 [1]: 22.9 nM | Emax [1]: 98.1%

CC(C)(C)NC(=O)c1c2c(nn1-c1cnccn1)CC1CCC2O1 (stereo not drawn) [Compound 46]
EC50 [1]: 1650 nM | Emax [1]: 85.8%

CC(C)(C)NC(=O)c1nn(-c2ccc(F)cc2F)c2c1C1CCC(C2)O1 (stereo not drawn) [Compound 47]
EC50 [1]: 559 nM | Emax [1]: 82.5%

CC(C)(C)NC(=O)c1nn(-c2c[n+]([O-])ccn2)c2c1C1CCC(C2)O1 (stereo not drawn) [Compound 48]
EC50 [1]: 1.98 nM | Emax [1]: 99.9%

CC(C)(C)NC(=O)c1c2c(nn1-c1c[n+]([O-])ccn1)CC1CCC2O1 (stereo not drawn) [Compound 49]
EC50 [1]: 2670 nM | Emax [1]: 80.3%

From patent US20240109910A1, “HEXAHYDRO-5,8-EPOXYCYCLOHEPTA[c]PYRAZOLE DERIVATIVES USEFUL AS MODULATORS OF THE CB1 AND / OR CB2 RECEPTORS” (JANSSEN PHARMACEUTICA NV, priority 2019, published 2024)
